Legend:
[1] = Kinetic thiol consumption assay with model thiol glutathione; format: physicochemical; set-up: Rate constant with glutathione (k(GSH)): unit not given here; settings: for Rate constant with glutathione (k(GSH)): 500 μM ligand, 5 μM thiol, phosphate buffer pH 8; for Rate constant with Glutathione: Protein: Glutathione, cysteine position NA, in h-1
Summary of the method: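 First, 5 μM glutathione in degassed phosphate buffer (pH 8) receives immobilized TCEP beads (2% v/v). Then acrylamide is added and plates incubate 1 h at room temperature. Finally, fluorescence (380/470 nm) is normalized and fitted to first-order decay for rate constants.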

[2] = molecular target: T1, human cyclin-dependent kinase 2 (Cdk2) (Homo sapiens, UniProt P24941); assay: Kinetic thiol consumption assay with wild type Cdk2 (C177); format: binding; set-up: key to Rate enhancement, Cdk2 WT: k(Cdk2) divided by k(model thiol); Rate constant with Cdk2 (k(Cdk2)): unit not given here; settings: for Rate constant with Cdk2 (k(Cdk2)): 500 μM ligand, 5 μM thiol, phosphate buffer pH 8; for Rate enhancement, Cdk2 WT: no additional mutations; for Rate constant with Cdk2 WT: Protein: Cdk2, cysteine position WT, in h^-1; for k(Cdk2)/k(Cdk2_mut) rate enhancement: model thiol Cdk2[C177A, F80C, K278C]; for k(Cdk2)/k(GSH) rate enhancement: model thiol glutathione
T1 construct: poly-histidine; made in house; host or cells: E. coli
Summary of the method: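 His-tagged human Cdk2 (single surface cysteine C177), expressed in E. coli, or a model thiol at 5 μM in degassed phosphate buffer pH 8 was pre-treated with immobilized TCEP beads (2% v/v) before acrylamide addition. Fluorescence (ex/em 380/470 nm) was read after 1 h at room temperature, normalized to DMSO/thiol-only control and plotted versus time.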

Cdk2[C177A, F80C, K278C] = molecular target: T2, Cdk2[C177A, F80C, K278C] (Homo sapiens, UniProt P24941, C177A/F80C/K278C); assay: Kinetic thiol consumption assay with mutant Cdk2 as model thiol; format: binding; set-up: unit not given here; settings: 500 μM ligand, 5 μM thiol, phosphate buffer pH 8
T2 construct: poly-histidine; made in house; host or cells: E. coli
Summary of the method: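 First-order rate constants were derived by exponential-decay fitting of DMSO/thiol-normalized fluorescence (380/470 nm) over time at room temperature. Thiol was 5 μM E. coli-expressed His-tagged Cdk2 mutant C177A/F80C/K278C in degassed pH 8 phosphate buffer containing 2% v/v TCEP beads.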

Cdk2(C177A, F80C) = molecular target: T3, Cdk2(C177A, F80C) (Homo sapiens, UniProt P24941, C177A/F80C); assay: Kinetic thiol consumption assay with Cdk2 mutant F80C, incl. kobs versus concentration (Kd, k2); format: binding; set-up: key to Rate enhancement, Cdk2 F80C: Cdk2 rate constant divided by model-thiol rate constant; settings: additional mutation C177A; for Rate constant with Cdk2 F80C: Protein: Cdk2, cysteine position F80C, in h^-1
T3 construct: poly-histidine; made in house; host or cells: E. coli
Summary of the method: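 His-tagged Cdk2(C177A/F80C) from E. coli or model thiol, 5 μM in degassed phosphate buffer pH 8 with TCEP beads, reacted with acrylamide ligands; fluorescence (ex/em 380/470 nm) normalized to DMSO control and fitted to first-order decay for kobs. Kd and k2 obtained from hyperbolic fit of kobs versus ligand concentration.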

Cdk2(H71C) (C177A) = molecular target: T4, Cdk2(H71C) (C177A) (Homo sapiens, UniProt P24941, C177A/H71C); assay: Kinetic thiol consumption assay with Cdk2 mutant H71C; format: binding; set-up: key to Rate enhancement, Cdk2 H71C: rate constant with Cdk2 ÷ rate constant with model thiol (fold); settings: additional mutation C177A; for Rate constant with Cdk2 H71C: Protein: Cdk2, cysteine position H71C, in h^-1
T4 construct: poly-histidine; made in house; host or cells: E. coli
Summary of the method: (§1)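 Thiol consumption was monitored kinetically using 5 μM Cdk2 (C177A plus one introduced cysteine) in degassed phosphate buffer at pH 8 with TCEP beads. Plates were kept 1 h at room temperature before fluorescence reading, and rate constants came from exponential decay fitting.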

Cdk2(S276C) (C177A) = molecular target: T5, Cdk2(S276C) (C177A) (Homo sapiens, UniProt P24941, C177A/S276C); assay: Kinetic thiol consumption assay with Cdk2 mutant S276C; format: binding; set-up: key to Rate enhancement, Cdk2 S276C: rate constant with Cdk2 ÷ rate constant with model thiol (fold); settings: additional mutation C177A; for Rate constant with Cdk2 S276C: Protein: Cdk2, cysteine position S276C, in h^-1
T5 construct: poly-histidine; made in house; host or cells: E. coli
Summary of the method: as §1

Cdk2(N272C) (C177A) = molecular target: T6, Cdk2(N272C) (C177A) (Homo sapiens, UniProt P24941, C177A/N272C); assay: Kinetic thiol consumption assay with Cdk2 mutant N272C; format: binding; set-up: key to Rate enhancement, Cdk2 N272: rate constant with Cdk2 ÷ rate constant with model thiol (fold); settings: for Rate enhancement, Cdk2 N272: Cdk2 N272, additional mutation C177A; for Rate constant with Cdk2 N272C: Protein: Cdk2, cysteine position N272C, additional mutation C177A, in h^-1
T6 construct: poly-histidine; made in house; host or cells: E. coli
Summary of the method: as §1

Cdk2(T182C) (C177A) = molecular target: T7, Cdk2(T182C) (C177A) (Homo sapiens, UniProt P24941, C177A/T182C); assay: Kinetic thiol consumption assay with Cdk2 mutant T182C; format: binding; set-up: key to Rate enhancement, Cdk2 T182C: rate constant with Cdk2 ÷ rate constant with model thiol (fold); settings: additional mutation C177A; for Rate constant with Cdk2 T182C: Protein: Cdk2, cysteine position T182C, in h^-1
T7 construct: poly-histidine; made in house; host or cells: E. coli
Summary of the method: as §1

Cdk2(R122C) (C177A) = molecular target: T8, Cdk2(R122C) (C177A) (Homo sapiens, UniProt P24941, C177A/R122C); assay: Kinetic thiol consumption assay with Cdk2 mutant R122C; format: binding; set-up: key to Rate enhancement, Cdk2 R122C: rate constant with Cdk2 ÷ rate constant with model thiol (fold); settings: additional mutation C177A; for Rate constant with Cdk2 R122C: Protein: Cdk2, cysteine position R122C, in h-1
T8 construct: poly-histidine; made in house; host or cells: E. coli
Summary of the method: as §1

Cdk2(S181C) (C177A) = molecular target: T9, Cdk2(S181C) (C177A) (Homo sapiens, UniProt P24941, C177A/S181C); assay: Kinetic thiol consumption assay with Cdk2 mutant S181C; format: binding; set-up: key to Rate enhancement, Cdk2 S181C: rate constant with Cdk2 ÷ rate constant with model thiol (fold); settings: additional mutation C177A; for Rate constant with Cdk2 S181C: Protein: Cdk2, cysteine position S181C, in h^-1
T9 construct: poly-histidine; made in house; host or cells: E. coli
Summary of the method: as §1

| SMILES | Rate constant with glutathione (k(GSH)) [1] | Rate constant with Glutathione [1] | Rate constant with Cdk2 (k(Cdk2)) [2] | Rate enhancement, Cdk2 WT [2] | Rate constant with Cdk2 WT [2] | k(Cdk2)/k(Cdk2_mut) rate enhancement [2] | k(Cdk2)/k(GSH) rate enhancement [2] | Rate constant with Cdk2[C177A, F80C, K278C] (k(Cdk2_mut)) (Cdk2[C177A, F80C, K278C]) | Rate enhancement, Cdk2 F80C (Cdk2(C177A, F80C)) | Rate constant with Cdk2 F80C (Cdk2(C177A, F80C)) | Rate enhancement, Cdk2 H71C (Cdk2(H71C) (C177A)) | Rate enhancement, Cdk2 S276C (Cdk2(S276C) (C177A)) | Rate constant with Cdk2 S276C (Cdk2(S276C) (C177A)) | Rate enhancement, Cdk2 N272 (Cdk2(N272C) (C177A)) | Rate constant with Cdk2 N272C (Cdk2(N272C) (C177A)) | Rate enhancement, Cdk2 T182C (Cdk2(T182C) (C177A)) | Rate constant with Cdk2 T182C (Cdk2(T182C) (C177A)) | Rate enhancement, Cdk2 R122C (Cdk2(R122C) (C177A)) | Rate constant with Cdk2 R122C (Cdk2(R122C) (C177A)) | Rate enhancement, Cdk2 S181C (Cdk2(S181C) (C177A)) | also measured |
| --- | --- | --- | --- | --- | --- | --- | --- | --- | --- | --- | --- | --- | --- | --- | --- | --- | --- | --- | --- | --- | --- |
| C=CC(=O)N1CC2CN(Cc3ccccc3)CC2C1 (stereo not shown) [CA-207] | 0.00972 | 0.01696 | 0.00578 | 0.3633 | 0.006162 | 5.219 | 0.5947 | 0.00111 | 0.1388 | 0.002354 | 0 | 0.1692 | 0.00287 | 0.3358 | 0.005695 | 0.921 | 0.01562 | 0.3602 | 0.006109 | 0.2075 | Rate constant with Cdk2 S181C (Cdk2(S181C) (C177A)): 0.003519 |
| C=CC(=O)N1CCCC(C(=O)OCC)C1 (stereo not shown) [EL-1187] | 0.00634 | 0.01328 | 0.00596 | 0.6935 | 0.00921 | 1.774 | 0.9394 | 0.00336 | 0.4424 | 0.005875 | 0.4465 | 0.4007 | 0.005321 | 0.5301 | 0.00704 | 4.397 | 0.05839 | 0.1436 | 0.001907 | 0.2887 | Rate constant with Cdk2 H71C (Cdk2(H71C) (C177A)): 0.005929; Rate constant with Cdk2 S181C (Cdk2(S181C) (C177A)): 0.003834 |
| C=CC(=O)N1CCCCCC1c1cccnc1 (stereo not shown) [EL-1059] | 0.00656 | 0.00648 | 0.00213 | 0.3281 | 0.002126 | 0.4738 | 0.3244 | 0.00449 | 0.1379 | 0.0008934 | 0.3667 | 0.7301 | 0.004731 | 0.325 | 0.002106 | 1.009 | 0.00654 | 0.3573 | 0.002315 | 0.9519 | Rate constant with Cdk2 H71C (Cdk2(H71C) (C177A)): 0.002376; Rate constant with Cdk2 S181C (Cdk2(S181C) (C177A)): 0.006168 |
| C=CC(=O)N1CC(OCc2cccc3ccccc23)C1 [CA-203] | 0.01382 | 0.01374 | 0.04586 | 3.338 | 0.04586 | 0.5803 | 3.318 | 0.07903 | 4.306 | 0.05916 | 3.672 | 3.934 | 0.05406 | 2.758 | 0.0379 | 13.92 | 0.1913 | 3.287 | 0.04516 | 8.879 | Rate constant with Cdk2 H71C (Cdk2(H71C) (C177A)): 0.05046; Rate constant with Cdk2 S181C (Cdk2(S181C) (C177A)): 0.122 |
| C=CC(=O)N1CCOC2(CCCCC2)C1 [CA-193] | 0.02378 | 0.02785 | 0.02444 | 0.8776 | 0.02444 | 2.308 | 1.028 | 0.01059 | 1.419 | 0.03952 | 1.842 | 1.379 | 0.03841 | 0.8528 | 0.02375 | 3.878 | 0.108 | 0.6093 | 0.01697 | 0.4083 | Rate constant with Cdk2 H71C (Cdk2(H71C) (C177A)): 0.05131; Rate constant with Cdk2 S181C (Cdk2(S181C) (C177A)): 0.01137 |
